Results from patent US8362018B2, “Substituted imidazo[1,2-a]pyrazine compounds useful for the treatment of viral infections” (Biofocus DPI, Ltd., priority 2007, dated 2013).

Tests used:
HRV-2 = assay: antiviral activity, HRV-2 in HeLa cells (Table 15); format: cell-based, human rhinoviruses (HRV); conditions: Rhinovirus A, HRV2; HRV-2 (HeLa cells)
HeLa cells = assay: cytotoxicity CC50 in HeLa cells (Table 15); format: cell-based
[1] = cytotoxicity CC50 in HeLa cells (Table 15); format: cell-based; conditions: human, HRV-2 column
HRV-14 = assay: antiviral activity, HRV-14 in HeLa cells (Table 15); format: cell-based, human rhinovirus 14 (HRV-14); conditions: Rhinovirus B, HRV14; HRV-14 (HeLa cells)
HCV replicon = assay: anti-viral assay (EC50), Table 13; format: cell-based; conditions: anti-viral assays
Description: The ability of a compound to inhibit HCV replication can be measured in vitro or using animal models using models and assays well known to those of skill in the art (e.g. Pietschmann et al, Clin Liver Dis. 7(1)c23-43, 2003). In vitro techniques for measuring the ability of a compound to inhibit HCV replication involve using HCV or an HCV replicon. Because HCV is difficult to grow in culture, particular in vitro techniques employ an HCV replicon.
An HCV replicon is an RNA molecule able to autonomously replicate in a cultured cell, such as Huh7. The HCV replicon expresses the HCV derived components of the replication machinery and contains cis-elements required for replication in a cultured cell. […]

[2] = cytotoxicity measurement (CC50), Table 13; format: cell-based; conditions: human, Huh7 cells
HRV clinical isolate = assay: antiviral activity, HRV clinical isolate in HeLa cells (Table 15); format: cell-based, human rhinoviruses (HRV); conditions: Enterovirus
Huh7 = assay: cytotoxicity measurement (CC50), Table 13; format: cell-based
HSV-1 = assay: antiviral profiling, HSV-1 in Vero cells (Table 14); format: cell-based; conditions: Human alphaherpesvirus 1; HSV-1, Vero cells
YFV = assay: microbe, parasite or virus in culture; format: cell-based; conditions: Yellow fever virus, BHK-21
Vero = assay: cytotoxicity CC50 in Vero cells (Table 14)
Sb-1 = assay: microbe, parasite or virus in culture; format: cell-based, poliovirus; conditions: Enterovirus C, Vero
CVB-2 = assay: antiviral profiling, CVB-2 in Vero cells (Table 14); format: cell-based, coxsackie B virus
in vitro [3] = conditions: Syrian hamster
[4] = cytotoxicity CC50 in MT-4 cells (Table 14); format: cell-based; conditions: human, HIV column
in vitro [5] = conditions: African green monkey
Influenza = assay: antiviral profiling, Influenza in MDCK cells (Table 14); format: cell-based
RSV = assay: antiviral profiling, RSV in Vero cells (Table 14); format: cell-based; conditions: human respiratory syncytial virus
[6] = cytotoxicity CC50 in Huh7 cells (Table 14); format: cell-based; conditions: human, HCV column
VSV = assay: microbe, parasite or virus in culture; format: cell-based; conditions: Vesicular stomatitis virus, Vero
HCV = assay: antiviral profiling, HCV in Huh7 cells (Table 14); format: cell-based; conditions: Hepatitis C virus, Huh-7
HIV = assay: antiviral profiling, HIV in MT-4 cells (Table 14); format: cell-based; conditions: Human immunodeficiency virus 1, MT4
[7] = cytotoxicity CC50 in MDCK cells (Table 14); conditions: dog

With `Cc1nc2c(NCc3ccc(S(N)(=O)=O)cc3)nccn2c1-c1ccc(O)c(F)c1` [Compound 106] the EC50 (HRV-2) was less than 1 µg/mL, the “CC50(μg/mL)” value (HeLa cells; HRV clinical isolate column) was “* (>35 μg/mL)” and the “CC50(μg/mL)” value (HeLa cells; HRV-14 column) was “* (>35 μg/mL)”. It also gave a CC50 [1] greater than 35 µg/mL, an EC50 (HRV-14) of less than 1 µg/mL and an EC50 (HCV replicon; Hepatitis C virus) of less than 1 µM. It also gave a CC50 [2] greater than 35 µM and an EC50 (HRV clinical isolate) of less than 1 µg/mL.
`NS(=O)(=O)c1cccc(CNc2nccn3c(-c4ccc(O)cc4)cnc23)c1` [Compound 95, 3-{[3-(4-Hydroxy-phenyl)-imidazol[1,2-a]pyrazin-8-ylamino]-methyl}-benzenesulfonamide] showed an EC50 (HCV replicon) of 1 to 20 µM and a CC50 (Huh7) of less than 35 µM.
With `NS(=O)(=O)c1ccc(CNc2nccn3c(-c4ccc(O)cc4)cnc23)cc1` [Compound 1, 4-{[3-(4-Hydroxy-phenyl)-imidazol[1,2-a]pyrazin-8-ylamino]-methyl}-benzenesulfonamide] the EC50 (HSV-1) was greater than 20 µM, the EC50 (YFV) was 1 to 20 µM and the EC50 (HRV-2) was less than 1 µg/mL. It also gave a CC50 (Vero; HSV-1) greater than 35 µM, a CC50 (Vero; RSV column) greater than 35 µM and a CC50 (Vero; Sb-1 column) greater than 35 µM. The EC50 (Sb-1) was less than 1 µM, the EC50 (CVB-2) was less than 1 µM and the CC50 (in vitro [3]) was less than 35 µM. The “CC50(μg/mL)” value (HeLa cells; HRV clinical isolate column) was “* (>35 μg/mL)”, the “CC50(μg/mL)” value (HeLa cells; HRV-14 column) was “* (>35 μg/mL)” and the CC50 [1] was greater than 35 µg/mL. The EC50 (HRV-14) was less than 1 µg/mL, the CC50 [4] was less than 35 µM and the EC50 (HCV replicon; Hepatitis C virus) was less than 1 µM. For the same molecule, the CC50 [2] was greater than 35 µM, the CC50 (in vitro [5]) was greater than 35 µM and the CC50 (in vitro [5]; Vero cells) was greater than 35 µM. The EC50 (Influenza) was greater than 20 µM, the EC50 (RSV) was greater than 20 µM and the EC50 (HRV clinical isolate) was less than 1 µg/mL. The CC50 [6] was greater than 35 µM, the EC50 (VSV) was greater than 20 µM and the EC50 (HCV) was less than 1 µM. It also gave an EC50 (HIV) of 1 to 20 µM and a CC50 [7] greater than 35 µM.
`COc1ccc(-c2cnc3c(NCCc4ccncc4)nccn23)cc1OC` [Compound 62] showed an EC50 (HCV replicon; Hepatitis C virus) of 1 to 20 µM and a CC50 [2] of less than 35 µM.
With `Oc1cccc(-c2cnc3c(NCc4cccs4)nccn23)c1` [Compound 80] the EC50 (HCV replicon; Hepatitis C virus) was 1 to 20 µM and the CC50 [2] was less than 35 µM.
`Oc1ccc(-c2cnc3c(NCc4ccc(Cl)cc4)nccn23)cc1` [Compound 34] gave an EC50 (HCV replicon; Hepatitis C virus) of 1 to 20 µM and a CC50 [2] of less than 35 µM.
`COc1ccc(-c2cnc3c(NCCS(N)(=O)=O)nccn23)cc1OC` [Compound 43] showed an EC50 (HCV replicon; Hepatitis C virus) greater than 20 µM and a CC50 [2] greater than 35 µM.
Molecule `Cc1ccccc1CNc1nccn2c(-c3ccc(O)cc3)cnc12` [Compound 36] has an EC50 (HCV replicon; Hepatitis C virus) of 1 to 20 µM and a CC50 [2] of less than 35 µM.
For `COc1ccc(-c2cnc3c(NCC4CCOCC4)nccn23)cc1OC` [Compound 29], the EC50 (HCV replicon; Hepatitis C virus) was 1 to 20 µM and the CC50 [2] was less than 35 µM.
In the case of `N#Cc1cc(-c2cnc3c(NCc4ccc(S(N)(=O)=O)cc4)nccn23)ccc1O` [Compound 51], the EC50 (HCV replicon; Hepatitis C virus) is reported as greater than 20 µM and the CC50 [2] is reported as greater than 35 µM.
Work on `NS(=O)(=O)c1ccc(CNc2nccn3c(-c4ccccc4)cnc23)cc1` [Compound 74] yielded an EC50 (HCV replicon; Hepatitis C virus) of 1 to 20 µM and a CC50 [2] of less than 35 µM.
With `Oc1cccc(-c2cnc3c(NCCc4cccnc4)nccn23)c1` [Compound 85] the EC50 (HCV replicon; Hepatitis C virus) was 1 to 20 µM and the CC50 [2] was less than 35 µM.
With `NS(=O)(=O)c1ccc(CNc2nccn3c(-c4ccc(OC(F)(F)F)cc4)cnc23)cc1` [Compound 15] the EC50 (HCV replicon; Hepatitis C virus) was greater than 20 µM and the CC50 [2] was greater than 35 µM.
For `Oc1ccc(-c2cnc3c(NCc4cccs4)nccn23)cc1` [Compound 59], the EC50 (HCV replicon; Hepatitis C virus) was 1 to 20 µM and the CC50 [2] was less than 35 µM.
In the case of `CS(=O)(=O)Nc1cccc(-c2cnc3c(NCCc4ccncc4)nccn23)c1` [Compound 4], the EC50 (HCV replicon; Hepatitis C virus) is reported as 1 to 20 µM and the CC50 [2] is reported as greater than 35 µM.
Molecule `N#Cc1ccc(CNc2nccn3c(-c4ccc(O)cc4)cnc23)cc1` [Compound 42] has an EC50 (HCV replicon; Hepatitis C virus) of 1 to 20 µM and a CC50 [2] of less than 35 µM.
